What all share (test): Greenhouse post-emergence herbicidal trial
The test system of experiment [1] is PANMI. Format: in vivo, Panicum milliaceum. Conditions: PANMI; a) 12.5 g/ha, MSO or COC 1.25% where in mixture, scale 0-100. An excerpt:
(§1) The culture vessels used were plastic flowerpots filled, as substrate, with sandy loam comprising about 3% of humus. The seeds of the test plants were sown separated according to species.
(§2) For the post-emergence treatment, the test plants were initially cultivated to a height of 3-17 cm according to their habit and only then treated with the active compounds, which had been suspended or emulsified in water. To this end, the test plants were either sown directly and cultivated in the same vessels, or they were initially cultivated separately as seedlings and transplanted into the test vessels a few days prior to the treatment. According to the species, the plants were kept at temperatures of from 15° C. to 25° C. or from 20 to 35° C. The trial period extended over 3 weeks. During this time the plants were tended and their response to the individual treatments was evaluated.
(§3) The application in the greenhouse was carried out at a spray liquor application rate of 200 l/ha.

Experiment [2] relates to SORBI. Format: in vivo, Sorghum bicolor. To be noted: SORBI; a) 25 g/ha, MSO or COC 1.25% where in mixture, scale 0-100.
Excerpt: as §1, §2, §3

Experiment [3] has as its system XANST. The format is in vivo, Xanthium strumarium. Conditions: XANST; a) 12.5 g/ha, MSO or COC 1.25% where in mixture, scale 0-100.
Excerpt: as §1, §2, §3

Experiment [4] has as its system AMBEL. The format is in vivo, Ambrosia elatior. Conditions: AMBEL; a) 3.125 g/ha, MSO or COC 1.25% where in mixture, scale 0-100.
Excerpt: as §1, §2, §3

Experiment [5] deals with ECHCG. Format: in vivo, Echinochloa crus-galli. To be noted: MSO or COC 1.25% where in mixture, scale 0-100.
Excerpt: as §1, §2, §3

Experiment [6] relates to SOLNI. The format is in vivo, Solanum nigrum. Conditions: SOLNI; a) 3.125 g/ha, MSO or COC 1.25% where in mixture, scale 0-100.
Excerpt: as §1, §2, §3

In experiment [7] the test system is HELAN. Format: in vivo, Helianthus annua. To be noted: HELAN; a) 6.25 g/ha, MSO or COC 1.25% where in mixture, scale 0-100.
Excerpt: as §1, §2, §3

Experiment [8] relates to SETVI. The format is in vivo, Setaria viridis. Conditions: SETVI; a) 12.5 g/ha, MSO or COC 1.25% where in mixture, scale 0-100.
Excerpt: as §1, §2, §3

Experiment [9] concerns PANDI. The format is in vivo, Panicum dichotomiflorum. Conditions: PANDI; a) 25 g/ha, MSO or COC 1.25% where in mixture, scale 0-100.
Excerpt: as §1, §2, §3

`Cc1c(C(=O)c2cnn(C)c2O)ccc(S(C)(=O)=O)c1C1=NOCC1` [a)]: the observed effect in experiment [1] amounted to 75; in experiment [2], 10; in experiment [3] it was 65; in [4] it was 60; in experiment [5] (ECHCG; a) 12.5 g/ha), 0; in experiment [5] (ECHCG; a) 25 g/ha), 0. In addition, the observed effect in experiment [6] came to 30; in [7] it was 30; in [8], 60; in [9], 0.
